Reference: ChEMBL document CHEMBL5042474, “Structure-Guided Discovery of Potent and Selective DYRK1A Inhibitors” (J Med Chem, 2021)

Tests used:
SK-N-MC [1] = experiment: cells; settings: Homo sapiens, 120 h
A2780 [2] = experiment: Antitumor activity against human A2780 cells xenografted in BALB/c […] mouse assessed as reduction in DYRK1A autophosphorylation of S520 residue at 37.5 mg/kg, po measured after 6 hrs by western blotting analysis relative to control; assay type: functional; parameters: scale not given: the % may be the effect or the level left
[3] = Plasma clearance in BALB/c nu/nu mouse at 3 mg/kg, po; assay type: ADME, organism-based
[4] = biological target: Dual specificity protein kinase CLK2 (Homo sapiens) (UniProt P49760); experiment: Residual activity of CLK2 (unknown origin) at 10 nM using Ulight-MBP as substrate and ATP as co-substrate incubated for 40 mins and measured after 1 hr by TR-FRET assay relative to control; settings: time 100.0 min
Chain of Dual specificity protein kinase CLK2 (Homo sapiens) (P49760 whole entry, looked up): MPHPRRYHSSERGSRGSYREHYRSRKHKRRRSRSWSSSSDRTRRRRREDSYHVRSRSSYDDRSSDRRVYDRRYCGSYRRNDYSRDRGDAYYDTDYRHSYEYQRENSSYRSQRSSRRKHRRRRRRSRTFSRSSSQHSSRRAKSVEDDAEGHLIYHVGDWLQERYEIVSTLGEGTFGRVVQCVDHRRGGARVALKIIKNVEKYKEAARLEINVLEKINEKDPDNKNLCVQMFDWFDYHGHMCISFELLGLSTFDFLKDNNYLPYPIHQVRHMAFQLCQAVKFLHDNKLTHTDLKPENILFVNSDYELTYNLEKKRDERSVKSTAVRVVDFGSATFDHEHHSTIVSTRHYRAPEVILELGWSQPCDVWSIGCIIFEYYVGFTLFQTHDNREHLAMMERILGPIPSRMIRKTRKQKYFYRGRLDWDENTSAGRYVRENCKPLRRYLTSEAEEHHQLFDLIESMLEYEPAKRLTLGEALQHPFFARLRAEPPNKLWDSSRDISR

A2780 [5] = experiment: Antitumor activity against human A2780 cells xenografted in Balb/c mouse assessed as inhibition of tumor growth at 75 mg/kg, po bid for 14 days relative to control; assay type: functional; settings: 336 h, time 14 day, read-out: TGI
A2780 [6] = experiment: Antitumor activity against human A2780 cells xenografted in BALB/c […] mouse assessed as reduction in DYRK1A autophosphorylation of S520 residue at 75 mg/kg, po measured after 6 hrs by western blotting analysis relative to control; assay type: functional; parameters: scale not given: the % may be the effect or the level left
RS4-11 [7] = experiment: Antitumor activity against human RS4-11 cells xenografted in BALB/c nu/nu mouse assessed as reduction in DYRK1A autophosphorylation of S520 residue at 3.125 mg/kg, po measured after 6 hrs by western blotting analysis relative to control; assay type: functional; parameters: scale not given: the % may be the effect or the level left
A2780 [8] = experiment: Antitumor activity against human A2780 cells xenografted in BALB/c nu/nu mouse assessed as reduction in DYRK1A autophosphorylation of S520 residue at 9.375 mg/kg, po measured after 2 hrs by western blotting analysis relative to control; assay type: functional; parameters: scale not given: the % may be the effect or the level left
RS4-11 [9] = experiment: Antitumor activity against human RS4-11 cells xenografted in BALB/c nu/nu mouse reduction in DYRK1A autophosphorylation of S520 residue at 6.25 mg/kg, po measured after 6 hrs by western blotting analysis relative to control; assay type: functional; parameters: scale not given: the % may be the effect or the level left
[10] = biological target: Dual specificity protein kinase CLK1 (Homo sapiens) (UniProt P49759); experiment: Residual activity of CLK1 (unknown origin) at 10 nM using Ulight-MBP as substrate and ATP as co-substrate incubated for 40 mins and measured after 1 hr by TR-FRET assay relative to control; settings: time 100.0 min
Chain of Dual specificity protein kinase CLK1 (Homo sapiens) (P49759 whole entry, looked up): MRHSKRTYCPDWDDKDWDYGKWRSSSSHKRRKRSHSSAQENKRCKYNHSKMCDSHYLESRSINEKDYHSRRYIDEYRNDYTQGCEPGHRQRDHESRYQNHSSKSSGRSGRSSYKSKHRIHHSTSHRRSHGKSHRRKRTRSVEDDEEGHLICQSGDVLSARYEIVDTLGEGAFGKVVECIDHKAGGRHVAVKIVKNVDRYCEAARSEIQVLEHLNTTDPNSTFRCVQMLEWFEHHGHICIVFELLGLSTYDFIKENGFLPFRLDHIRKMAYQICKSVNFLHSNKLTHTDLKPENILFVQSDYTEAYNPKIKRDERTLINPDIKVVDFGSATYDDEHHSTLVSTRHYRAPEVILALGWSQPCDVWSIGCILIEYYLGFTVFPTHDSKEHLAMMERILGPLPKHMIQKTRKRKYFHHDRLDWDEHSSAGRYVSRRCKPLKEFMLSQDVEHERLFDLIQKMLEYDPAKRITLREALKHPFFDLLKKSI

RS4-11 [11] = experiment: Antitumor activity against human RS4-11 cells xenografted in BALB/c nu/nu mouse assessed as reduction in DYRK1A autophosphorylation of S520 residue at 12.5 mg/kg, po measured after 6 hrs by western blotting analysis relative to control; assay type: functional; parameters: scale not given: the % may be the effect or the level left
A2780 [12] = experiment: cells; settings: Homo sapiens, A2780, 120 h
[13] = Toxicity in Balb/c nude mouse xenografted with human A2780 cells assessed as decrease in body weight at 18.75 mg/kg, po bid for 14 days relative to control; assay type: organism-based; parameters: scale not given: the % may be the effect or the level left; settings: in vivo, 336 h, time 14 day
[14] = Oral bioavailability in BALB/c nu/nu mouse at 3 mg/kg; assay type: ADME, organism-based; settings: in vivo
A2780 [15] = experiment: Antitumor activity against human A2780 cells xenografted in BALB/c nu/nu mouse assessed as reduction in DYRK1A autophosphorylation of S520 residue at 37.5 mg/kg, po measured after 2 hrs by western blotting analysis relative to control; assay type: functional; parameters: scale not given: the % may be the effect or the level left
[16] = Toxicity in Balb/c nude mouse xenografted with human A2780 cells assessed as decrease in body weight at 37.5 mg/kg, po bid for 14 days relative to control; assay type: organism-based; parameters: scale not given: the % may be the effect or the level left; settings: in vivo, 336 h, time 14 day
A2780 [17] = experiment: Antitumor activity against human A2780 cells xenografted in Balb/c mouse assessed as tumor volume T/C at 4.75 mg/kg, po bid for 14 days relative to control; settings: time 14 day
SK-N-MC [18] = experiment: cells; settings: Homo sapiens
RS4-11 [19] = experiment: Antitumor activity against human RS4-11 cells xenografted in BALB/c nu/nu mouse assessed as reduction in DYRK1A autophosphorylation of S520 residue at 3.125 mg/kg, po measured after 2 hrs by western blotting analysis relative to control; assay type: functional; parameters: scale not given: the % may be the effect or the level left
[20] = biological target: Casein kinase I isoform gamma-1 (Homo sapiens) (UniProt Q9HCP0); experiment: Residual activity of CSNK1G1 (unknown origin) at 10 nM using Ulight-MBP as substrate and ATP as co-substrate incubated for 40 mins and measured after 1 hr by TR-FRET assay relative to control; settings: time 100.0 min
Chain of Casein kinase I isoform gamma-1 (Homo sapiens) (Q9HCP0 whole entry, looked up, canonical isoform): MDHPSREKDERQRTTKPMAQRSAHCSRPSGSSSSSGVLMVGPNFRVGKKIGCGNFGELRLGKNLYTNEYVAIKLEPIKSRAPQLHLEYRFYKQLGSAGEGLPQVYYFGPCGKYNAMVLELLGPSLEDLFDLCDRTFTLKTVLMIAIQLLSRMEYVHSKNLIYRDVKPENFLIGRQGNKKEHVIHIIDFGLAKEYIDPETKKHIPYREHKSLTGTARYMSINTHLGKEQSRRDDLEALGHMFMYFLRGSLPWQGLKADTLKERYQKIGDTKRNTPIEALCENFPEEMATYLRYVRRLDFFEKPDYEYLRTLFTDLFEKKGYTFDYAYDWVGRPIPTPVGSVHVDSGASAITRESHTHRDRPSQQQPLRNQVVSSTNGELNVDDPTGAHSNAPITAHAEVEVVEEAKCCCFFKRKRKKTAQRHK

C-33-A = experiment: cells; settings: Homo sapiens, 120 h
A2780 [21] = experiment: Antitumor activity against human A2780 cells xenografted in BALB/c nu/nu mouse assessed as reduction in DYRK1A autophosphorylation of S520 residue at 18.75 mg/kg, po measured after 6 hrs by western blotting analysis relative to control; assay type: functional; parameters: scale not given: the % may be the effect or the level left
[22] = Toxicity in Balb/c nude mouse xenografted with human A2780 cells assessed as decrease in body weight at 75 mg/kg, po bid for 14 days relative to control; assay type: organism-based; parameters: scale not given: the % may be the effect or the level left; settings: in vivo, 336 h, time 14 day
A2780 [23] = experiment: Antitumor activity against human A2780 cells xenografted in Balb/c mouse assessed as tumor volume T/C at 75 mg/kg, po bid for 14 days relative to control; settings: time 14 day
A2780 [24] = experiment: Antitumour activity against human A2780 cells xenografted in Balb/c mouse assessed as tumor volume T/C at 18.75 mg/kg, po bid for 14 days relative to control; settings: time 14 day
[25] = biological target: Dual specificity tyrosine-phosphorylation-regulated kinase 1B (Homo sapiens) (UniProt Q9Y463); experiment: Residual activity of DYRK1B (unknown origin) at 10 nM using Ulight-MBP as substrate and ATP as co-substrate incubated for 40 mins and measured after 1 hr by TR-FRET assay relative to control; settings: time 100.0 min
Chain of Dual specificity tyrosine-phosphorylation-regulated kinase 1B (Homo sapiens) (Q9Y463 whole entry, looked up): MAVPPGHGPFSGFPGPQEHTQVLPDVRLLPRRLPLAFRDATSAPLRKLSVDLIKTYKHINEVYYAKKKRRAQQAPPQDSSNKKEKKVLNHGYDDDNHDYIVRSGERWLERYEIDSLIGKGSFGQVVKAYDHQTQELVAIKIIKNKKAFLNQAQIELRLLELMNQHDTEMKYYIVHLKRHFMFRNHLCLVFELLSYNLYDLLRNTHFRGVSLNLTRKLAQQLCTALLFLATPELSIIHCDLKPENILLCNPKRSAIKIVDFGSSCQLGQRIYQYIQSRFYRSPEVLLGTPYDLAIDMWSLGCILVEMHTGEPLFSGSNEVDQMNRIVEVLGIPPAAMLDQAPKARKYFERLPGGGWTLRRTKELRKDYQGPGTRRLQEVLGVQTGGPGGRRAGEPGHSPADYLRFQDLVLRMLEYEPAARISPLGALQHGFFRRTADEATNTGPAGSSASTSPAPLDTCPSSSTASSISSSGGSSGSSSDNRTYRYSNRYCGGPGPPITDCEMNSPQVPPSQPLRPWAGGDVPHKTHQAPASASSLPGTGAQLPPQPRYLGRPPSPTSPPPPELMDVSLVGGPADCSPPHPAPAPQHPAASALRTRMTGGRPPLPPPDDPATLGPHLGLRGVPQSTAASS

A2780 [26] = experiment: Antitumour activity against human A2780 cells xenografted in Balb/c mouse assessed as tumor volume T/C at 9.5 mg/kg, po bid for 14 days relative to control; settings: time 14 day
RS4-11 [27] = experiment: Antitumor activity against human RS4-11 cells xenografted in BALB/c nu/nu mouse assessed as reduction in DYRK1A autophosphorylation of S520 residue at 25 mg/kg, po measured after 6 hrs by western blotting analysis relative to control; assay type: functional; parameters: scale not given: the % may be the effect or the level left
A2780 [28] = experiment: Antitumor activity against human A2780 cells xenografted in Balb/c mouse assessed as inhibition of tumor growth at 37.5 mg/kg, po bid for 14 days relative to control; assay type: functional; settings: 336 h, time 14 day, read-out: TGI
RS4-11 [29] = experiment: Antitumor activity against human RS4-11 cells xenografted in BALB/c nu/nu mouse assessed as reduction in DYRK1A autophosphorylation of S520 residue at 6.25 mg/kg, po measured after 2 hrs by western blotting analysis relative to control; assay type: functional; parameters: scale not given: the % may be the effect or the level left

IC50 (SK-N-MC [1]): 0.958 µM | CL/F [3]: 226 mL/min/kg | residual activity [4]: 40% | residual activity [10]: 48% | IC50 (A2780 [12]): 1.54 µM | bioavailability [14]: 39% | IC50 (SK-N-MC [18]): 0.077 µM | residual activity [20]: 69% | IC50 (C-33-A): 1.02 µM | residual activity [25]: 20%
SMILES: Cc1nc2ccc(-c3cc(N)nc(N)c3)nc2n1C1CC1
Activity (A2780 [2]): 95% | inhibition in vivo at 75 mg/kg (A2780 [5]): 92% | Activity (A2780 [6]): 92% | Activity (RS4-11 [7]): 38% | Activity (A2780 [8]): 60% | Activity (RS4-11 [9]): 25% | Activity (RS4-11 [11]): 84% | Activity [13]: 10.7% | Activity (A2780 [15]): 82% | Activity [16]: 9.7% | T/C (A2780 [17]): 91% | Activity (RS4-11 [19]): 51% | Activity (A2780 [21]): 80% | Activity [22]: 16.3% | T/C (A2780 [23]): 24% | T/C (A2780 [24]): 63% | T/C (A2780 [26]): 95% | Activity (RS4-11 [27]): 91% | inhibition in vivo at 37.5 mg/kg (A2780 [28]): 63% | Activity (RS4-11 [29]): 77%
